“Also recorded” adds a separate entry of the source. Read-outs that look alike come from different tables or passages of the source.
Tests used:
NQO1 = NQO1 assay; assay type: cell-based; conditions: Hepa1c1c7 cells, 48 h; for specific activity of NQO1: 0 uM = 1
Protocol: In this study, the inventors used a […] assay to quantitate the NQO1 levels. […] Specifically, Hepa1c1c7 cells were exposed in 8 replicates to a vehicle ([…]) or 8 serial dilutions of each compound for 48 h. Cells were then lysed and the specific activity of NQO1 was determined using menadione as a substrate.

NMR solubility assay = assay type: physicochemical; conditions: 5 μM to 30 μM, PBS buffer, pH 7.4
[1] = Dynamic light scattering (DLS) aggregation; assay type: physicochemical; conditions: 20 μM compound, triplicates average
Protocol: To test the potential aggregation of hits we used DLS experiments. The experiments were performed on a ZS90 Zetasizer instrument (Malvern Panalytical, UK). Measurements were done in triplicate with 10 scans per run (100 s). […] The 20 μM working solution was made from a 1 mM stock of the compound in DMSO. The data was analysed by the built-in software. Compounds were classified as aggregated when the radius of the measured particles was above the minimum colloidal aggregate size (for small molecules) of 50 nm^39.

KEAP1 = molecular target: T1, KEAP1 (Mus musculus, UniProt Q9Z2X8); assay: Ligand-detected NMR (DLB, STD, CPMG); assay type: binding; conditions: 50 μM compound, 5 μM KEAP1 (2.5 μM for iKeap1 and iKeap2)
T1 construct: The cleaved mouse KEAP1 Kelch domain (residues 322-624) consists of 308 amino acids; GST (N, cleaved yes); made in house; host or cells: E. coli BL21(DE3)
T1 sequence (Q9Z2X8 322-624): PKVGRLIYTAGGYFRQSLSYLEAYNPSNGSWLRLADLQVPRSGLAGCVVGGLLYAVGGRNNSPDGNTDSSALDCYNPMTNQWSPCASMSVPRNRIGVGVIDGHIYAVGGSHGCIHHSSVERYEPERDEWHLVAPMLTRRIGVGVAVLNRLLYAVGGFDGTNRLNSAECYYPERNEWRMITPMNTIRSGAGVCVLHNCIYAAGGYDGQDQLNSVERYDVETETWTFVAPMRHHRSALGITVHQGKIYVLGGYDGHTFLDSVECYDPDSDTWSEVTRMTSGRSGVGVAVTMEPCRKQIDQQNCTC
Protocol: Data were analysed and visualized in Matlab (MathWorks, MA).

GST-KEAP1 = molecular target: T2, GST-KEAP1 (Mus musculus, UniProt Q9Z2X8); assay: SPR Level-3 steady-state binding
T2 construct: mouse KEAP1 Kelch domain (residues 322-624); made in house; host or cells: E. coli BL21(DE3)
T2 sequence (Q9Z2X8 322-624): as above
Excerpt: Req=(Rmax*C)/(Kd+C)+b, (1)
The biphasic binding model is given by the equation
Req=(Rmax,1*C)/(Kd,1+C)+Rmax,2*C/(Kd,2+C)+b, (2)

NRF2-KEAP1 interaction [2] = molecular target: T3, NRF2-KEAP1 interaction (Mus musculus, UniProt Q9Z2X8); assay: Fluorescence polarization (FP) Level-2 NRF2 peptide displacement; assay type: binding; conditions: for FP Assay: ability to displace the NRF2-peptide
T3 construct: mouse KEAP1 Kelch domain (residues 322-624); made in house; host or cells: E. coli BL21(DE3); peptide purchased from GenScript USA Inc
T3 sequence (Q9Z2X8 322-624): as above
Protocol: The measurements were carried out in triplicate, and the three data points for each concentration averaged. IC50 values were determined by fitting the averaged data points to a four parameter logistic curve using the non-linear least squares method provided by the SciPy library for Python^33. The standard error (see Table 5) on the IC50 was computed by taking the square root of the diagonal of the parameter covariant matrix.

NRF2-KEAP1 interaction [3] = molecular target: T3, NRF2-KEAP1 interaction; assay: BLI displacement assay; assay type: binding; conditions: ability to displace the NRF2-peptide
Protocol: Bio-layer interferometry binding and displacement assays: NRF2-KEAP1 binding BLI experiments were performed on an Octet RED384 (ForteBio, Menlo Park, Calif., USA) using streptavidin-coated Dip and Read Biosensors (ForteBio) and 384 well plates with 120 μL volume. […] To test for nonspecific binding of GST-KEAP1 protein, reference tips were incubated in buffer alone. […] After measuring association, tips were moved to wells containing buffer, and dissociation was measured for 5 minutes. The data were processed and analysed using the Octet data analysis software version 11.0 (ForteBio, Inc., Menlo Park, Calif., USA). The association-dissociation curve for each concentration was fitted using a 1:1 model given by the equations
Compound screening by BLI displacement assay: The BLI displacement assays were setup as described above. […] The compounds were used at concentrations of […], and pre-incubated with GST-KEAP1 protein. The association phase was measured in the well containing compound with GST-KEAP1 protein for 10 minutes, and followed by a dissociation phase in buffer for 5 minutes. The inhibition percentage was the average BLI signal in the last 50 seconds of the dissociation phase, normalized against the condition of GST-KEAP1 protein in the absence of compound.

[4] = SPR Level-3, independent experiment 2, compounds marked * fitted with biphasic binding model, read-out: Kd, 2

| SMILES | specific activity of NQO1 (NQO1; 0.156 uM) | specific activity of NQO1 (NQO1; 0.313 uM) | specific activity of NQO1 (NQO1; 0.625 uM) | specific activity of NQO1 (NQO1; 1.25 uM) | specific activity of NQO1 (NQO1; 2.5 uM) | specific activity of NQO1 (NQO1; 5 uM) | specific activity of NQO1 (NQO1; 10 uM) | specific activity of NQO1 (NQO1; 20 uM) | Radius [1] | binding to KEAP1 by ligand-detected NMR (KEAP1) | FP Assay (NRF2-KEAP1 interaction [2]) | BLI Assay (NRF2-KEAP1 interaction [3]) | also measured |
| --- | --- | --- | --- | --- | --- | --- | --- | --- | --- | --- | --- | --- | --- |
| Cc1ccc(S(=O)(=O)Oc2nc3nc4ccccc4nc3nc2OS(=O)(=O)c2ccc(C)cc2)cc1 [iKeap1] | 1.19 | 1.28 | 1.41 | 1.68 | 2.1 | 2.66 | 3.53 | 4.18 | 2.306 nm | – | – | – | CD (NQO1): 2 µM; aggregation in NMR solubility assay (NMR solubility assay): does not aggregate |
| O=C(O)c1ccc(NC2=C/C(=N\S(=O)(=O)c3ccc4ccccc4c3)c3ccccc3C2=O)cc1 [iKeap2] | 1.13 | 1.2 | 1.33 | 1.49 | 1.91 | 2.75 | 6.08 | – | 12.492 nm | directly bind to KEAP1 | active | able to displace the NRF2 peptide from KEAP1; also recorded: active | CD (NQO1): 2.7 µM; Kd (GST-KEAP1; SPR Level-3, average of three independent experiments, read-out: Kd average): 252 nM; Kd (GST-KEAP1; [4]): 263 nM; Kd (GST-KEAP1; SPR Level-3, independent experiment 3, compounds marked * fitted with biphasic binding model, read-out: Kd, 3): 334 nM; Kd (GST-KEAP1; steady-state SPR, read-out: Kd (binding affinity to KEAP1)): 158 nM; IC50 (NRF2-KEAP1 interaction [2]; Level-2 FP, displacement of TAMRA-NRF2 peptide): 2700 nM |
| O=C1OC(c2ccc([N+](=O)[O-])cc2)=N/C1=C\c1cccc2ccccc12 [iKeap4] | 1.06 | 1.1 | 1.21 | 1.18 | 1.27 | 1.47 | 1.75 | 2.2 | – | – | – | – | CD (NQO1): 15 µM |
| CC1=NN(c2ccccc2)C(=O)/C1=C\c1ccc(-c2cc(C(=O)O)ccc2Cl)o1 [iKeap7] | 1.06 | 1.08 | 1.13 | 1.17 | 1.3 | 1.44 | 1.65 | 2.08 | 3.663 nm | bind to KEAP1 | displacer of the NRF2 peptide; also recorded: active | displacer of the NRF2 peptide; also recorded: active | CD (NQO1): 20 µM |
| O=C(Nc1cccc(-c2nnn[nH]2)c1)[C@@H]1C[C@H]2CCCC[C@H]2N1C(=O)c1ccc2ccccc2c1 [iKeap8] | 1.07 | 1.04 | 1.06 | 1.11 | 1.08 | 1.11 | 1.16 | 1.21 | 3.340 nm | bind to KEAP1 | able to displace the NRF2 peptide; also recorded: active | able to displace the NRF2 peptide; also recorded: active | – |
| O=S(=O)(N=C1CCCCCN1)c1ccc2sc(NS(=O)(=O)c3ccc4ccccc4c3)nc2c1 [iKeap9] | – | – | – | – | – | – | – | – | 1.862 nm | bind to KEAP1 | not able to effectively displace the NRF2 peptide | not able to effectively displace the NRF2 peptide | Kd (GST-KEAP1; [4]): 187 nM |
| O=S(=O)(O)c1ccc(/N=N\c2ccc(/N=N\c3ccc(O)c4cccc(S(=O)(=O)O)c34)cc2)cc1 [iKeap18] | 1.09 | 1.09 | 1.19 | 1.18 | 1.29 | 1.39 | 1.58 | 1.79 | – | – | – | – | CD (NQO1; extrapolated (extp)): 40 (extp) uM |
| O=C1C[C@@H](c2ccc3ncccc3c2)c2c(cc(O)c3c(=O)cc(-c4ccc(O)cc4)oc23)O1 [iKeap22] | – | – | – | – | – | – | – | – | 2.547 nm | bind to KEAP1 | not active | displacer; also recorded: active | – |
| Cc1ccc(C)c(N2C(=O)c3ccc(-c4nc(-c5ccc6[nH]nnc6c5)no4)cc3C2=O)c1 [iKeap27] | – | – | – | – | – | – | – | – | 2.643 nm | – | not active | active | – |
| O=S(=O)(Nc1nc2ccccc2nc1N1CCC[C@@H](c2nc3ccccc3[nH]2)C1)c1ccccc1 [iKeap33] | – | – | – | – | – | – | – | – | 1.585 nm | – | not active | active | – |
| O=C(c1cc(-c2ccc3c(c2)OCCO3)nc2ccccc12)N1CCC(Cc2ccccc2)CC1 [iKeap41] | – | – | – | – | – | – | – | – | 4.446 nm | – | not active | active | – |
| CC(=O)N/C(=C\c1ccc(Cc2nc3c([nH]2)C(=O)c2ccccc2C3=O)cc1)c1nc2c([nH]1)C(=O)c1ccccc1C2=O [iKeap48] | – | – | – | – | – | – | – | – | 25.579 nm | – | not active | active | – |
| C[C@H]1CCc2c(sc3ncnc(N4CCO[C@@H](CN5C(=O)c6ccccc6C5=O)C4)c23)C1 [iKeap73] | – | – | – | – | – | – | – | – | 2.510 nm | – | not active | active | – |
| C[C@@H]1Oc2ccc(C(=O)C3CCN(C(=O)[C@H]4C[C@H]4c4cccc5ccccc45)CC3)cc2NC1=O [iKeap74] | – | – | – | – | – | – | – | – | 3.034 nm | – | not active | active | – |
| Cc1cccn2c(=O)c3c(nc12)N1CCCCC[C@H]1[C@]1(C3)C(=O)N(Cc2ccccc2Cl)C(=O)N=C1O [iKeap75] | – | – | – | – | – | – | – | – | 3.612 nm | – | not active | active | – |

— US20230127304A1, “NEW INHIBITORS FOR THE KEAP1-NRF2 PROTEIN-PROTEIN INTERACTION” (PRESIDENT AND FELLOWS OF HARVARD COLLEGE, priority 2020, published 2023)
